What follows are molecules tested on XBP1(u)-luciferase splicing reporter in HepG2 hepatoma cells (assay: HepG2 XBP1 reporter assay (XBP1(u)-Luc)). Details: Homo sapiens, 6 h, six hours after addition of compound.
Type: cell-based
Source text: HepG2 XBP1 Reporter Assay
HepG2 hepatoma cells were transduced with a retrovirus encoding the cDNA for unspliced (u) XBP1, which contains a non-processed intron, fused to the cDNA for firefly luciferase. Upon induction of ER stress, the non-processed intron of XBP1(u) is spliced out by active IRE1alpha endonuclease. The resulting spliced (s) XBP1 is now in frame with luciferase which causes the production of active luciferase protein, resulting in bioluminescence
HepG2 XBP1(u)-Luc cells were plated […] Cultured cells with a stably transfected reporter construct were plated at approximately 30,000 cells per well into 96 well multi-well plates for twenty four hours. The testing compounds were then added to the wells in 3-fold serial dilutions using a twenty seven micromolar top concentration. A series of control wells for each cell type received only compound solvent. Six hours after the addition of compound, reporter activity for luciferase was assayed, by addition of the SteadyGlo luminescence reagent (Promega). The reporter luminescence activity was measured using Pherastar plate reader (BMG Labtech). Readings was normalized to DMSO only treated cells, and normalized activities were then used in the IC50 calculations. The HepG2 XBP1 reporter assay data are summarized in Tables 3-5: A<0.6 μM; 0.6 μM≤B<2.0 μM; 2.0 μM≤C<5.0 μM; D≥5.0 μM.
In the case of `CCOc1cc(C2COCCCN2c2cc(C)nc(N)n2)c(Cl)cc1OCC(=O)OC` [D-44], the IC50 is reported as 600 to 2000 nM. Molecule `CCOc1cc(C2COCCCN2c2cc(C)nc(N)n2)c(Cl)cc1OCC(=O)NC(C)(C)C` [D-47] has an IC50 of 600 to 2000 nM. With `C=CCOc1cc(Cl)c(C2COCCCN2c2cc(C)nc(N)n2)cc1OCC` [D-48] the IC50 was 600 to 2000 nM. Work on `COC(=O)Cc1cc(C2COCCCN2c2cc(C)nc(N)n2)c(Cl)cc1C#N` [D-53] yielded an IC50 of 2000 to 5000 nM. For `Cc1cc(N2CCCOC[C@@H]2c2ccc(NC(=O)C3(F)CCOC3)cc2Cl)nc(N)n1` (stereo partly drawn) [D-62], the IC50 was 2000 to 5000 nM. Molecule `Cc1cc(N2CCCOC[C@@H]2c2ccc(C3CCNCC3)cc2Cl)nc(N)n1` [D-66] has an IC50 of 2000 to 5000 nM. With `Cc1cc(N2CCCOCC2c2ncc(CS(C)(=O)=O)cc2OC(F)F)nc(N)n1` [D-67] the IC50 was 600 to 2000 nM. With `Cc1cc(N2CCCOC[C@@H]2c2ccc(C3CCN(C4COC4)CC3)cc2Cl)nc(N)n1` [D-69] the IC50 was 600 to 2000 nM. `Cc1cc(N2CCCOCC2c2ccc(C3CCN(C4COC4)CC3)cc2Cl)nc(N)n1` [D-70] was tested, and the IC50 was 2000 to 5000 nM. `CCOc1cc(C2COCCCN2c2cc(C)nc(N)n2)c(Cl)cc1OCC(N)=O` [D-72] gave an IC50 of 600 to 2000 nM. With `Cc1cc(N2CCCOCC2c2cc(CN)c(Cl)cc2C)nc(N)n1` [D-73] the IC50 was 600 to 2000 nM. For `Cc1cc(N2CCCOCC2c2cc(O)c(OC(F)(F)F)cc2Cl)nc(N)n1` [D-74], the IC50 was less than 600 nM. `Cc1cc(N2CCCOC[C@@H]2c2cc(CN)c(C)cc2Cl)nc(N)n1` [D-75] gave an IC50 of less than 600 nM. Work on `Cc1cc(N2CCCOC[C@H]2c2cnc(CS(C)(=O)=O)cc2Cl)nc(N)n1` [D-76] yielded an IC50 of less than 600 nM. With `COC(=O)c1cc(C2COCCCN2c2cc(C)nc(N)n2)c(Cl)cc1C#N` [D-77] the IC50 was 600 to 2000 nM. Work on `Cc1cc(N2CCCOCC2c2cc(O)c(S(C)(=O)=O)cc2Cl)nc(N)n1` [D-79] yielded an IC50 of 600 to 2000 nM. In the case of `Cc1cc(N2CCCOC[C@@H]2c2ccc(N3CCN(C(=O)OC(C)(C)C)CC3)cc2Cl)nc(N)n1` [D-82], the IC50 is reported as 600 to 2000 nM. `Cc1cc(N2CCCOC[C@@H]2c2ccc(NCC3CCOC3)cc2Cl)nc(N)n1` (stereo partly drawn) [D-83] was tested, and the IC50 was less than 600 nM. In the case of `Cc1cc(N2CCCOC[C@@H]2c2ccc(N3C[C@@H](C)O[C@@H](C)C3)cc2Cl)nc(N)n1` [D-84], the IC50 is reported as 600 to 2000 nM. `Cc1cc(N2CCCOCC2c2cnc(CS(C)(=O)=O)cc2OC(F)F)nc(N)n1` [D-85] was tested, and the IC50 was 600 to 2000 nM. In the case of `CCc1cc(N2CCCOCC2c2cc(O)c(S(C)(=O)=O)cc2Cl)nc(N)n1` [D-87], the IC50 is reported as no less than 5000 nM. Work on `Cc1cc(N2CCCOC[C@H]2c2ccc([C@@H]3CCCN3)cc2Cl)nc(N)n1` [D-88] yielded an IC50 of 2000 to 5000 nM. `Cc1cc(N2CCCOC[C@H]2c2ccc([C@H]3CCCN3)cc2Cl)nc(N)n1` [D-89] gave an IC50 of 2000 to 5000 nM. With `Cc1cc(N2CCCOC[C@@H]2c2ccc([C@H]3CCCN3)cc2Cl)nc(N)n1` [D-90] the IC50 was less than 600 nM. Work on `Cc1cc(N2CCCOC[C@@H]2c2ccc([C@@H]3CCCN3)cc2Cl)nc(N)n1` [D-91] yielded an IC50 of less than 600 nM. `Cc1cc(N2CCCOCC2c2ccc(NC(=O)CC(C)C)cc2Cl)nc(N)n1` [D-92] gave an IC50 of 600 to 2000 nM. For `Cc1cc(N2CCCOC[C@@H]2c2ccc(CS(C)(=O)=O)nc2OC(F)F)nc(N)n1` [D-93], the IC50 was less than 600 nM. Molecule `Cc1cc(N2CCCOCC2c2ccc(NC(=O)CC3CC3)cc2Cl)nc(N)n1` [D-94] has an IC50 of 2000 to 5000 nM. Work on `CCCC(=O)Nc1ccc(C2COCCCN2c2cc(C)nc(N)n2)c(Cl)c1` [D-95] yielded an IC50 of 600 to 2000 nM. With `Cc1cc(N2CCCOCC2c2ccc(NC(=O)CC(C)(C)C)cc2Cl)nc(N)n1` [D-96] the IC50 was 600 to 2000 nM. `CCC(=O)Nc1cc(Cl)c(C2COCCCN2c2cc(C)nc(N)n2)cc1O` [D-97] gave an IC50 of less than 600 nM. For `CCc1cc(N2CCCOCC2c2cc(O)c(CS(C)(=O)=O)cc2Cl)nc(N)n1` [D-98], the IC50 was less than 600 nM. `Cc1cc(N2CCCOC[C@@H]2c2cc(CN)c(Cl)cc2C)nc(N)n1` [D-99] was tested, and the IC50 was less than 600 nM. Molecule `Cc1cc(N2CCCOCC2c2cc(O)c(NC(=O)CC(C)(C)O)cc2Cl)nc(N)n1` [D-100] has an IC50 of 600 to 2000 nM. `CCOc1cc([C@H]2COCCCN2c2cc(C)nc(N)n2)c(Cl)cc1OCC(N)=O` [D-101] was tested, and the IC50 was less than 600 nM. `Cc1cc(N2CCCOCC2c2ccc(S(N)(=O)=O)cc2)nc(N)n1` [D-102] showed an IC50 of no less than 5000 nM. In the case of `Cc1cc(N2CCCOCC2c2sc(Cl)nc2Cl)nc(N)n1` [D-103], the IC50 is reported as 2000 to 5000 nM. In the case of `C#CCOc1cc(Cl)c([C@H]2COCCCN2c2cc(C)nc(N)n2)cc1OC` [D-105], the IC50 is reported as less than 600 nM. For `CCc1ccccc1[C@H]1COCCCN1c1cc(C)nc(N)n1` [D-106], the IC50 was less than 600 nM. `Cc1cc(N2CCCOCC2c2ccc(Cl)cc2C#N)nc(N)n1` [D-107] showed an IC50 of 600 to 2000 nM. For `Cc1cc(N2CCCOCC2c2ccc3[nH]ncc3c2)nc(N)n1` [D-108], the IC50 was 2000 to 5000 nM. `CC(=O)Nc1cc(Cl)c(C2COCCCN2c2cc(C)nc(N)n2)cc1O` [D-109] showed an IC50 of less than 600 nM. In the case of `Cc1cc(N2CCCOCC2c2cc(O)c(NC(=O)C3CC3)cc2Cl)nc(N)n1` [D-112], the IC50 is reported as less than 600 nM. `C#Cc1ccccc1C1COCCCN1c1cc(C)nc(N)n1` [D-113] gave an IC50 of 600 to 2000 nM. Work on `Cc1cc(N2CCCOC[C@H]2c2cc3c(cc2Cl)NC[C@@](C)(C(=O)O)O3)nc(N)n1` [D-114] yielded an IC50 of no less than 5000 nM. In the case of `Cc1cc(N2CCCOC[C@@H]2c2cc(O)c(C(N)=O)cc2Cl)nc(N)n1` [D-115], the IC50 is reported as 600 to 2000 nM. In the case of `CNC(=O)c1cc(Cl)c(C2COCCCN2c2cc(C)nc(N)n2)cc1O` [D-118], the IC50 is reported as 600 to 2000 nM. Work on `Cc1cc(N2CCCOC[C@@H]2c2cc3c(cc2Cl)NC[C@@](C)(C(N)=O)O3)nc(N)n1` [D-120] yielded an IC50 of less than 600 nM. For `Cc1cc(N2CCCOC[C@H]2c2cc(O)c(C(=O)NC(C)C)cc2Cl)nc(N)n1` [D-121], the IC50 was no less than 5000 nM. Molecule `Cc1cc(N2CCCOCC2c2cc3c(cc2Cl)NC[C@@](C)(C(=O)NC2CC2)O3)nc(N)n1` (stereo partly drawn) [D-122] has an IC50 of less than 600 nM. Molecule `Cc1cc(N2CCCOC[C@@H]2c2cc(O)c(C(=O)NC(C)C)cc2Cl)nc(N)n1` [D-123] has an IC50 of 2000 to 5000 nM. For `Cc1cc(N2CCCOCC2c2cc3c(cc2Cl)NC[C@@](C)(C(=O)NC(C)C)O3)nc(N)n1` (stereo partly drawn) [D-124], the IC50 was less than 600 nM. `Cc1cc(N2CCCOCC2c2cc3c(cc2Cl)NC[C@@](C)(C(=O)OC(C)C)O3)nc(N)n1` (stereo partly drawn) [D-125] showed an IC50 of less than 600 nM. Work on `Cc1cc(N2CCCOC[C@@H]2c2cc3c(cc2Cl)NC[C@@](C)(C(=O)N2CCOCC2)O3)nc(N)n1` [D-126] yielded an IC50 of less than 600 nM. `COc1cc(OC)c(C2COCCCN2c2cc(C)nc(N)n2)cc1O` [D-127] gave an IC50 of less than 600 nM. Work on `Cc1cc(N2CCCOC[C@H]2c2cc3c(cc2Cl)NC[C@@](C)(C(=O)OC(C)C)O3)nc(N)n1` [D-128] yielded an IC50 of 600 to 2000 nM. For `CCOC(=O)c1cc(C2COCCCN2c2cc(C)nc(N)n2)c(Cl)cc1C#N` [D-129], the IC50 was no less than 5000 nM. `Cc1cc(N2CCCOC[C@@H]2c2cc(O)c(C(=O)NCCO)cc2Cl)nc(N)n1` [D-130] gave an IC50 of no less than 5000 nM. Molecule `Cc1cc(N2CCCOC[C@@H]2c2cc(O)c(C(=O)NC3CC3)cc2Cl)nc(N)n1` [D-131] has an IC50 of no less than 5000 nM. `Cc1cc(N2CCCOC[C@@H]2c2cc3c(cc2Cl)NC[C@@](C)(C(=O)N(C)C)O3)nc(N)n1` [D-132] was tested, and the IC50 was less than 600 nM. For `Cc1cc(N2CCCOC[C@@H]2c2cc3c(cc2Cl)NC[C@@](C)(C(=O)NCCO)O3)nc(N)n1` [D-133], the IC50 was less than 600 nM. `CCOC(=O)c1cc(Cl)c(C2COCCCN2c2cc(C)nc(N)n2)cc1C#N` [D-134] gave an IC50 of no less than 5000 nM. With `COC(=O)c1cc(Cl)c(C2COCCCN2c2cc(C)nc(N)n2)cc1C#N` [D-135] the IC50 was no less than 5000 nM. With `Cc1cc(N2CCCOCC2c2ccc(C(C)(C)S(C)(=O)=O)cc2Cl)nc(N)n1` [D-136] the IC50 was less than 600 nM. `Cc1cc(N2CCCOC[C@@H]2c2cc(O)c(C(=O)N3CCOCC3)cc2Cl)nc(N)n1` [D-137] gave an IC50 of less than 600 nM. With `CS(=O)(=O)c1ccc(C2COCCCN2c2ccnc(N)n2)c(Cl)c1` [D-138] the IC50 was no less than 5000 nM.
